From US5723580A, “Ketomethylene group-containing aldehyde cysteine and serine protease inhibitors” (Cephalon, Inc., priority 1996, dated 1998)

Columns and labels:
Assay type in all cases: biochemical
Calpain I = molecular target: T1, Calpain I (Homo sapiens, UniProt P07384); test: Inhibition of calpain I activity (fluorescence, Succ-Leu-Tyr-MNA substrate hydrolysis); settings: 0.2 mM Succ-Leu-Tyr-MNA, pH 7.5
T1 construct: made in house
T1 sequence (P07384 1-714): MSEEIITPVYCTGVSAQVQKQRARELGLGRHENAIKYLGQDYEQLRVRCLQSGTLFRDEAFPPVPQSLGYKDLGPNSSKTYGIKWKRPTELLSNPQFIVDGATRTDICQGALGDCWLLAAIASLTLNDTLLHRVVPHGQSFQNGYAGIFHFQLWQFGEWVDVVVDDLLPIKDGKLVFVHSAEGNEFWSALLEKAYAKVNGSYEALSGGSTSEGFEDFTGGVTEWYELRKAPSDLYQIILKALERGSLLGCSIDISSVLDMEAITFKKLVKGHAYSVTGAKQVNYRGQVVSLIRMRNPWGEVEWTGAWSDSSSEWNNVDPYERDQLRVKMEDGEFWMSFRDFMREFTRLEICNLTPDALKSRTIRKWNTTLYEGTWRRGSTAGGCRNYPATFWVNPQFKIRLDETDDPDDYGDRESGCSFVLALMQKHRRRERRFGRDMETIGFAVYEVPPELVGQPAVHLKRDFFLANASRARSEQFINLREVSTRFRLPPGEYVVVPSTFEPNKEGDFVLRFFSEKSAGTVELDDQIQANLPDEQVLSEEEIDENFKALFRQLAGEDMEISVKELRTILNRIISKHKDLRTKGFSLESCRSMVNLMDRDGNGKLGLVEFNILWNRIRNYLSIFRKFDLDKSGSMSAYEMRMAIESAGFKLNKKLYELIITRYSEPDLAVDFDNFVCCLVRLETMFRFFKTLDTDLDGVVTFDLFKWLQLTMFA
T1 sequence (P04632 1-268 partner): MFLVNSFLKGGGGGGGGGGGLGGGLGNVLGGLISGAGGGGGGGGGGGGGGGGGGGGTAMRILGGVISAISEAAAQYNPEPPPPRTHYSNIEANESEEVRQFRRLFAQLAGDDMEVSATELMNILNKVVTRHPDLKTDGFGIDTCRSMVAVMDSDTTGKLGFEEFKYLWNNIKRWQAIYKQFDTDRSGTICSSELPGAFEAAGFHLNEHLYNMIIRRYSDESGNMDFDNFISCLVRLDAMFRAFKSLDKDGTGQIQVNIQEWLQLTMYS
Method: (§1) To evaluate inhibitory activity, stock solutions (40 times concentrated) of each compound to be tested were prepared in 100% anhydrous DMSO and 5 μL of each inhibitor preparation were aliquoted into each of three wells of a 96-well plate. Calpain I, prepared by a modification of the method of W. J. Lee et al. (Biochem. Internatl. 22: 163-171 (1990)), was diluted into assay buffer (i.e., 50 mM Tris, 50 mM NaCl, 1 mM EDTA, 1 mM EGTA, and 5 mM-mercaptoethanol, pH 7.5 including 0.2 mM Succ-Leu-Tyr-MNA) and 175 μL aliquoted into the same wells containing the independent inhibitor stocks as well as to positive control wells containing 5 μL DMSO, but no compound. To start the reaction, 20 μL of 50 mM CaCl2 in assay buffer was added to all wells of the plate, excepting three, which were used as background signal baseline controls. Substrate hydrolysis was monitored every 5 minutes for a total of 30 minutes using a Fluoroskan II fluorescence plate reader. Substrate hydrolysis in the absence of inhibitor was linear for up to 15 minutes.
(§2) Inhibition of calpain I activity was calculated as the percent decrease in the rate of substrate (S) hydrolysis in the presence of inhibitor (I) relative to the rate in its absence (o). […] The results were plotted as % inhibition versus log inhibitor concentration and the IC50 was calculated from linear regression of the data.

cathepsin B = test: Inhibition of cathepsin B activity (Cbz-Phe-Arg-AMC substrate); settings: @1 uM; 0.1 mM Cbz-Phe-Arg-AMC, pH 6.0
Method: as §1, with “To start the reaction, 20 μL of 50 mM CaCl2 in assay buffer was added to all wells of the plate, excepting three, which were used as background signal baseline controls.” left out, “Substrate hydrolysis in the absence of inhibitor was linear for up to 15 minutes.” left out
as §2
(§3) Additionally, the order of reagents added to the plate was altered because both enzymes are constitutively active. […] Substrate hydrolysis was monitored using a Fluoroskan II (ex=390 nm; em=460 nm).

cathepsin L = test: Inhibition of cathepsin L activity (Cbz-Phe-Arg-AMC substrate); settings: @1 uM; 0.006 mM Cbz-Phe-Arg-AMC, pH 6.0
Method: as §1, with “To start the reaction, 20 μL of 50 mM CaCl2 in assay buffer was added to all wells of the plate, excepting three, which were used as background signal baseline controls.” left out, “Substrate hydrolysis in the absence of inhibitor was linear for up to 15 minutes.” left out
as §2, §3

thrombin = test: Inhibition of thrombin (Bz-Phe-Val-Arg-AMC substrate); settings: @10 uM; 25 μM Bz-Phe-Val-Arg-AMC, pH 7.5
α-chymotrypsin = test: Inhibition of α-chymotrypsin (Succ-Ala-Ala-Pro-Phe-AMC substrate); settings: @10 uM; 0.03 mM Succ-Ala-Ala-Pro-Phe-AMC, pH 7.5
Method: as §1, with “To start the reaction, 20 μL of 50 mM CaCl2 in assay buffer was added to all wells of the plate, excepting three, which were used as background signal baseline controls.” left out, “Substrate hydrolysis in the absence of inhibitor was linear for up to 15 minutes.” left out
Additionally, because α-chymotrypsin is not a calcium sensitive enzyme and is constitutively active, following addition of inhibitor stocks to the 96 well plates, 100 μl of a 2-fold concentrated stock of enzyme in dilution buffer was first added and the reaction started by addition of 100 μl of a 2-fold concentrated stock of substrate in assay buffer. Substrate hydrolysis was monitored every 5 minutes up to 30 minutes using a Fluoroskan II ([…]). […]

Q: `CC(C)CC(CC(=O)[C@H](CC(C)C)NC(=O)OCc1ccccc1)C(=O)N[C@H](C=O)CC(C)C` (stereo partly drawn) [compound 7, Z-Leu-Psi[COCH2 ]Leu-Leu-H] was tested. Which IC50 (Calpain I) did it give?
A: The IC50 was 12 nM.

Q: What about the “Cat B % I” value (cathepsin B) of the same molecule?
A: The value was 97%.

Q: And the “Cat L % I” value (cathepsin L)?
A: The value was 100%.

Q: And the “Thrombin % I” value (thrombin)?
A: The value was 0%.

Q: And the “Chymotrypsin % I” value (α-chymotrypsin)?
A: The value was 53%.
